Laboratory results taken from article PMC6704710, “Preclinical evaluation of 3D185, a novel potent inhibitor of FGFR1/2/3 and CSF-1R, in FGFR-dependent and macrophage-dominant cancer models” (Journal of Experimental & Clinical Cancer Research : CR, 2019).

Tests used:
Test in all cases: Eurofins kinase panel
Format in all cases: biochemical
Settings in all cases: read-out: Inhibition rate (%)
Met(Y1248H)(h) = molecular target: T1, Met(Y1248H)(h) (Homo sapiens, UniProt P08581, Y1230H)
T1 construct: purchased Eurofins (KinaseProfiler)

PKG1β(h) = molecular target: T2, PKG1β(h) (Homo sapiens, UniProt Q13976)
T2 construct: purchased Eurofins (KinaseProfiler)
T2 sequence (Q13976 1-686 isoform Q13976-2): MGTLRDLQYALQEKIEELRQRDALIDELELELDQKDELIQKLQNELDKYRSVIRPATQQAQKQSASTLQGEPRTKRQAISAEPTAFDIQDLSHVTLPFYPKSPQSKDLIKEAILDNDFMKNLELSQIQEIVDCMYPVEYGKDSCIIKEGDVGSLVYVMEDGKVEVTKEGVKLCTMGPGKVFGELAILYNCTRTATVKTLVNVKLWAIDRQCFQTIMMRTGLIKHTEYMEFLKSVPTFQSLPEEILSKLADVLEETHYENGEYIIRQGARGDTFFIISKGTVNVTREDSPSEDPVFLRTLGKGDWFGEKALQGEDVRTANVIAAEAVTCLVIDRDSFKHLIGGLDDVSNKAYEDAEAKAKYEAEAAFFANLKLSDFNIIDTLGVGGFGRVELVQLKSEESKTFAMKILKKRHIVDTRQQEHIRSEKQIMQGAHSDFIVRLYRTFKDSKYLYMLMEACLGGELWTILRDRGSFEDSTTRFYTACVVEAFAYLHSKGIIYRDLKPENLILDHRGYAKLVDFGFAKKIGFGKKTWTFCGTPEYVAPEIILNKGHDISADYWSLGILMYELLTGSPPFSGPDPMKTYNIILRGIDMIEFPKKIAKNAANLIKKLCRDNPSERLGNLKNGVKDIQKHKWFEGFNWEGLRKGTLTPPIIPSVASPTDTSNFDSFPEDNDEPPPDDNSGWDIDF

CK2α1(h) = molecular target: T3, CK2α1(h) (Homo sapiens, UniProt P68400)
T3 construct: purchased Eurofins (KinaseProfiler)

MYO3B(h) = molecular target: T4, MYO3B(h) (Homo sapiens, UniProt Q8WXR4)
T4 construct: purchased Eurofins (KinaseProfiler)
T4 sequence (Q8WXR4 1-1341): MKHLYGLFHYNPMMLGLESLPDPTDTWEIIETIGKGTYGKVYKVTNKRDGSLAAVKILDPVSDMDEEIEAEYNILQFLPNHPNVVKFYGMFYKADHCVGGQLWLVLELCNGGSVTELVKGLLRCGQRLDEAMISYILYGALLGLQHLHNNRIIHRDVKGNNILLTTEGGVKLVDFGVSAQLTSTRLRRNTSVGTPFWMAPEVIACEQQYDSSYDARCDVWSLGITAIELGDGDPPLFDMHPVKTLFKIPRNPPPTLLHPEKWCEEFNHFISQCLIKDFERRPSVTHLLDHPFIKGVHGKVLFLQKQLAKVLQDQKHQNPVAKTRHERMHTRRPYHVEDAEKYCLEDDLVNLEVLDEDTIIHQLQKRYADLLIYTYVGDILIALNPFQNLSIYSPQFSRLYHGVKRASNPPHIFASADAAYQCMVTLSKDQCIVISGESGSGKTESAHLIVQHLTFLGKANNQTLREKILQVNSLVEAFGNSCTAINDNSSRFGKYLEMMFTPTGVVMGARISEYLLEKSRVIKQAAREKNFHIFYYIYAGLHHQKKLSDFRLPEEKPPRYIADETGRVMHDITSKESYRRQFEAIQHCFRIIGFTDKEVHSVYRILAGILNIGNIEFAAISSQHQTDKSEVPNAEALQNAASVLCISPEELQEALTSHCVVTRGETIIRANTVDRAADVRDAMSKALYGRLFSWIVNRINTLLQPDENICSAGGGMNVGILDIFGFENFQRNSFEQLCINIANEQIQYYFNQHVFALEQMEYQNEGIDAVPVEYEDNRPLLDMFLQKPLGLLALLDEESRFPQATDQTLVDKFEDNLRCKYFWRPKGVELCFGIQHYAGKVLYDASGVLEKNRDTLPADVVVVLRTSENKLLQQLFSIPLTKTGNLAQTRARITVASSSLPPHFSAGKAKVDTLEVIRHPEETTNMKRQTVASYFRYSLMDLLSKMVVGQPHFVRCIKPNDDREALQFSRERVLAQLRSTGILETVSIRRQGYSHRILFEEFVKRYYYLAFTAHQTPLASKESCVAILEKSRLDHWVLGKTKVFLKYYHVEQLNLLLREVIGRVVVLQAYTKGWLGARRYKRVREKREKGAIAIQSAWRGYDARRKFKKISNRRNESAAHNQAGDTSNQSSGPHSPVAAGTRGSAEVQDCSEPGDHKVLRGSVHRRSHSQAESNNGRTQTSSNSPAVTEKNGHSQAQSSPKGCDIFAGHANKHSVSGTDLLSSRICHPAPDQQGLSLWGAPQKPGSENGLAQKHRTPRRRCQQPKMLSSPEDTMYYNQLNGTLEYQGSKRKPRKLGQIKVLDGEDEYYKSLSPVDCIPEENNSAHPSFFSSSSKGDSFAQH

Rsk1(r) = molecular target: T5, Rsk1(r) (Rattus norvegicus, UniProt Q63531)
T5 construct: purchased Eurofins (KinaseProfiler)

TrkB(h) = molecular target: T6, TrkB(h) (Homo sapiens, UniProt Q16620)
T6 construct: purchased Eurofins (KinaseProfiler)

Rsk1(h) = molecular target: T7, Rsk1(h) (Homo sapiens, UniProt Q15418)
T7 construct: purchased Eurofins (KinaseProfiler)
T7 sequence (Q15418 whole entry): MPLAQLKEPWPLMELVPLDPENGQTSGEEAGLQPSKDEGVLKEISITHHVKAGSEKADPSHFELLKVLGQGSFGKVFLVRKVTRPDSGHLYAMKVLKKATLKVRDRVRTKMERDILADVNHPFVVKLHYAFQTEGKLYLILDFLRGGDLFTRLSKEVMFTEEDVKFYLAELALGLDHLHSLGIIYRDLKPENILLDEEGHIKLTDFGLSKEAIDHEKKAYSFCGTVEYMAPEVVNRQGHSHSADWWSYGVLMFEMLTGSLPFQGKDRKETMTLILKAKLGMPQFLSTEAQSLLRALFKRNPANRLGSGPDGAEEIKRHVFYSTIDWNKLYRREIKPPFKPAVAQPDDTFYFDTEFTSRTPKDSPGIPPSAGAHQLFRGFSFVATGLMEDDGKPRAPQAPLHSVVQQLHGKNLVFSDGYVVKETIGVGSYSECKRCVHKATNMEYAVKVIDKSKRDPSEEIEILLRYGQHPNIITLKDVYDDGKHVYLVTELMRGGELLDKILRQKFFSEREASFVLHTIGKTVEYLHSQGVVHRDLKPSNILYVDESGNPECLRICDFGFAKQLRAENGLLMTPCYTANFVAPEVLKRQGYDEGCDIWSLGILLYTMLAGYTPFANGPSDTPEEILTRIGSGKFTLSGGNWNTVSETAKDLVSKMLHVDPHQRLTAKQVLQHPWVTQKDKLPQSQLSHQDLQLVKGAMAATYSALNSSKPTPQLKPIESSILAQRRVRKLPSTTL

T5 sequence (Q63531 whole entry): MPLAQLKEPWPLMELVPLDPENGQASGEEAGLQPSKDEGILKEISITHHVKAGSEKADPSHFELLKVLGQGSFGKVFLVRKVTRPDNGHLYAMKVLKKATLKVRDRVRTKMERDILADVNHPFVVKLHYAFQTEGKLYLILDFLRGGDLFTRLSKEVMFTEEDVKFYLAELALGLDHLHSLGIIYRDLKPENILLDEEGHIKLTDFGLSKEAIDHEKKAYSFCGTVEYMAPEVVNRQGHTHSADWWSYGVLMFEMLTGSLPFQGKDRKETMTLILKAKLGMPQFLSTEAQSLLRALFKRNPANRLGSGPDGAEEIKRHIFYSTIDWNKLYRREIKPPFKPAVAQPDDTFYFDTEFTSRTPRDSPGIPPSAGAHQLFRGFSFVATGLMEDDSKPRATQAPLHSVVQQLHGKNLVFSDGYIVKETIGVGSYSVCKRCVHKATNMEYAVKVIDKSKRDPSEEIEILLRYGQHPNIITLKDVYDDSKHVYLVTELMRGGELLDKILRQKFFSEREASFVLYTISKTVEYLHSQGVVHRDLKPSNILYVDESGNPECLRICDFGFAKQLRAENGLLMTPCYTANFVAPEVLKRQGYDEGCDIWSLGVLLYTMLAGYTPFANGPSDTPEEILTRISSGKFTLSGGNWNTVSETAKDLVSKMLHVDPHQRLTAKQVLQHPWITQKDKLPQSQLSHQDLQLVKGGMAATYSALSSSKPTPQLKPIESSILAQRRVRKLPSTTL
T6 sequence (Q16620 32-822): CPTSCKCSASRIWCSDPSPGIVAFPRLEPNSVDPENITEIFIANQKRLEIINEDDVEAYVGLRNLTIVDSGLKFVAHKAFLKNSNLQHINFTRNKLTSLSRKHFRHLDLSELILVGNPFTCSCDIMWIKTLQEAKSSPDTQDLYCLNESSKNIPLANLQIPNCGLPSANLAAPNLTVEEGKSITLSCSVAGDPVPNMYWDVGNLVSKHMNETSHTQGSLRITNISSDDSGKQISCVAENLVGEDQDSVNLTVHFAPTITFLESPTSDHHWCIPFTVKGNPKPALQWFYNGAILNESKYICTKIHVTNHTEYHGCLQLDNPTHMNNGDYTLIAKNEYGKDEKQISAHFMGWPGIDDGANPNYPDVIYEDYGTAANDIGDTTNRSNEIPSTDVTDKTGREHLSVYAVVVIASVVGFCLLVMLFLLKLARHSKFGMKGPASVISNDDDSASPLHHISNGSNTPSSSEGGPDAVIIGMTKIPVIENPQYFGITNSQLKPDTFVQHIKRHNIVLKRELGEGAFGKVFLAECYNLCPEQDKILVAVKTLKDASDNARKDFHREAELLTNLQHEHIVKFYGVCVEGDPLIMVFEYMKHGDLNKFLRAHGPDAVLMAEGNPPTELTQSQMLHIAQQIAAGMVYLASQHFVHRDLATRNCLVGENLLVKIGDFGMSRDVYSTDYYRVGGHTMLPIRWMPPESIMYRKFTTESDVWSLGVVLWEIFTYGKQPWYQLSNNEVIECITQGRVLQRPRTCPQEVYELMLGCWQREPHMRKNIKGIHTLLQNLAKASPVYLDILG
T3 sequence (P68400 whole entry): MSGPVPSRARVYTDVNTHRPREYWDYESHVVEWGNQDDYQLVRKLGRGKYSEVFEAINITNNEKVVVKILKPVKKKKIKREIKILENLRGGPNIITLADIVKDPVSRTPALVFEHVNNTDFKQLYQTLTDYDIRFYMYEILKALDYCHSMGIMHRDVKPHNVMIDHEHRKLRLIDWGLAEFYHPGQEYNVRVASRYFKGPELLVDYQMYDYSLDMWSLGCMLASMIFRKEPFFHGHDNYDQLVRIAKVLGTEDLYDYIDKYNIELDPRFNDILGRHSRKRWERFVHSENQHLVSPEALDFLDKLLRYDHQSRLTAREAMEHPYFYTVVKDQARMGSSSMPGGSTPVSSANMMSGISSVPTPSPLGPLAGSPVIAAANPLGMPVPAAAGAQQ
T1 sequence (P08581 956-1390 Y1230H limits assumed): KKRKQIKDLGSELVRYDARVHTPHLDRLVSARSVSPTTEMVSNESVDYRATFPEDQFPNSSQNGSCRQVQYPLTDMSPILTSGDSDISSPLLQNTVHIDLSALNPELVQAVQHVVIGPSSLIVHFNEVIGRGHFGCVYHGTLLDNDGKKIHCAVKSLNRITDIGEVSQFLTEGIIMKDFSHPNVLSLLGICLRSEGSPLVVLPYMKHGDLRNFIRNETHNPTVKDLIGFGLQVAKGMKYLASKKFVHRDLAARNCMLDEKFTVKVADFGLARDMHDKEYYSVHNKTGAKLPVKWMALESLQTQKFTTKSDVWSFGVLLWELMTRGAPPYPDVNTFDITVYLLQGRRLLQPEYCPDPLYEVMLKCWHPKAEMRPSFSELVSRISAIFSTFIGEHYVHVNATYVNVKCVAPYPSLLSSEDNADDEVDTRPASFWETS

COc1cc(OC)c(Cl)c(-c2ccc3c(NC(=O)c4ccc(N5CCNC(C)(C)C5)cc4)n[nH]c3n2)c1Cl [3D185]
inhibition at 0.01 µM (Met(Y1248H)(h); 10 nM): -16% | inhibition at 0.1 µM (Met(Y1248H)(h); 100 nM): 8% | inhibition at 1 µM (Met(Y1248H)(h); 1000 nM): 46% | inhibition at 0.01 µM (PKG1β(h); 10 nM): 12% | inhibition at 0.1 µM (PKG1β(h); 100 nM): 1% | inhibition at 1 µM (PKG1β(h); 1000 nM): 4% | inhibition at 0.01 µM (CK2α1(h); 10 nM): 23% | inhibition at 0.1 µM (CK2α1(h); 100 nM): 21% | inhibition at 1 µM (CK2α1(h); 1000 nM): 10% | inhibition at 0.01 µM (MYO3B(h); 10 nM): -4% | inhibition at 0.1 µM (MYO3B(h); 100 nM): 0% | inhibition at 1 µM (MYO3B(h); 1000 nM): 7% | inhibition at 0.01 µM (Rsk1(r); 10 nM): -17% | inhibition at 0.1 µM (Rsk1(r); 100 nM): 8% | inhibition at 1 µM (Rsk1(r); 1000 nM): 30% | inhibition at 0.01 µM (TrkB(h); 10 nM): 31% | inhibition at 0.1 µM (TrkB(h); 100 nM): 87% | inhibition at 1 µM (TrkB(h); 1000 nM): 97% | inhibition at 0.01 µM (Rsk1(h); 10 nM): -1% | inhibition at 0.1 µM (Rsk1(h); 100 nM): -4% | inhibition at 1 µM (Rsk1(h); 1000 nM): 24%
